Experimental data as given in ChEMBL document CHEMBL1201862, “PubChem BioAssay data set” (2004).
Active and inactive are the calls of the source.

Columns and labels:
[1] = target: T1, Probable nicotinate-nucleotide adenylyltransferase (Staphylococcus aureus (strain N315), UniProt P65502); type: functional, Staphylococcus aureus subsp. aureus N315;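 for IC50 Mean: confirmatory dose-response retesting of NadD inhibitor hits first found in an ultra-high-throughput screen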
[2] = target: T2, Dual specificity protein phosphatase 6 (Rattus norvegicus, UniProt Q64346); type: functional;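 note: confirmatory in vitro dose-response testing of MKP-3 inhibition; recombinant His-tagged MKP-3 made in E. coli BL21 with OMFP substrate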
T2 sequence (Q64346 whole entry): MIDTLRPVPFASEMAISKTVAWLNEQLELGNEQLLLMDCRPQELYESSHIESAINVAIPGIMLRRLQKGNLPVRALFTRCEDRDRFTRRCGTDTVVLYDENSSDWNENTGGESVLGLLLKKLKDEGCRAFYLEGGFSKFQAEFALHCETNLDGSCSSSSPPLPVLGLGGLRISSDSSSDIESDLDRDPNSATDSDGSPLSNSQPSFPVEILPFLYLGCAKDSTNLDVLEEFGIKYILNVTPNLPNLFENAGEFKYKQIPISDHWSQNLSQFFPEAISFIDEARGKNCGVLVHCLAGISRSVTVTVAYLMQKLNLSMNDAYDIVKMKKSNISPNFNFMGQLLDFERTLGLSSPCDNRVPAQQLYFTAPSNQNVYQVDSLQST

[3] = target: T3, Dual specificity protein phosphatase 3 (Homo sapiens, UniProt P51452); test: SAR VHR1 Fluorescent Assay for In Vitro dose response studies Set 2. [Related pubchem assays (depositor defined):AID1654, AID1661, AID1878]; type: functional
T3 sequence (P51452 whole entry): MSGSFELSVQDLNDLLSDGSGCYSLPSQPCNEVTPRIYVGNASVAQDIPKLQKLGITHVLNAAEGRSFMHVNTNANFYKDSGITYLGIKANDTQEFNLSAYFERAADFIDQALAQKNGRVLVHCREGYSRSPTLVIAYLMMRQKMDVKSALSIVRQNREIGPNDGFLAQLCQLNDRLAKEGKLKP

[4] = target: T3, Dual specificity protein phosphatase 3; test: SAR VHR1 Fluorescent Assay for In Vitro dose response studies. [Related pubchem assays (depositor defined):AID1654, AID1661, AID1878, AID1992, AID2004, AID2070, AID2085]; type: functional
Fatty acid synthase [5] = target: T4, Fatty acid synthase (Homo sapiens, UniProt P49327); test: inhibition of human FAS-TE enzyme activity – biochemical, kinetic fluorescence intensity, dose response (AID 624326); type: functional;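 note: rate of fluorescence rise from hydrolysis of a fluorogenic O-methyl fluorescein ester substrate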
T4 sequence (P49327 whole entry): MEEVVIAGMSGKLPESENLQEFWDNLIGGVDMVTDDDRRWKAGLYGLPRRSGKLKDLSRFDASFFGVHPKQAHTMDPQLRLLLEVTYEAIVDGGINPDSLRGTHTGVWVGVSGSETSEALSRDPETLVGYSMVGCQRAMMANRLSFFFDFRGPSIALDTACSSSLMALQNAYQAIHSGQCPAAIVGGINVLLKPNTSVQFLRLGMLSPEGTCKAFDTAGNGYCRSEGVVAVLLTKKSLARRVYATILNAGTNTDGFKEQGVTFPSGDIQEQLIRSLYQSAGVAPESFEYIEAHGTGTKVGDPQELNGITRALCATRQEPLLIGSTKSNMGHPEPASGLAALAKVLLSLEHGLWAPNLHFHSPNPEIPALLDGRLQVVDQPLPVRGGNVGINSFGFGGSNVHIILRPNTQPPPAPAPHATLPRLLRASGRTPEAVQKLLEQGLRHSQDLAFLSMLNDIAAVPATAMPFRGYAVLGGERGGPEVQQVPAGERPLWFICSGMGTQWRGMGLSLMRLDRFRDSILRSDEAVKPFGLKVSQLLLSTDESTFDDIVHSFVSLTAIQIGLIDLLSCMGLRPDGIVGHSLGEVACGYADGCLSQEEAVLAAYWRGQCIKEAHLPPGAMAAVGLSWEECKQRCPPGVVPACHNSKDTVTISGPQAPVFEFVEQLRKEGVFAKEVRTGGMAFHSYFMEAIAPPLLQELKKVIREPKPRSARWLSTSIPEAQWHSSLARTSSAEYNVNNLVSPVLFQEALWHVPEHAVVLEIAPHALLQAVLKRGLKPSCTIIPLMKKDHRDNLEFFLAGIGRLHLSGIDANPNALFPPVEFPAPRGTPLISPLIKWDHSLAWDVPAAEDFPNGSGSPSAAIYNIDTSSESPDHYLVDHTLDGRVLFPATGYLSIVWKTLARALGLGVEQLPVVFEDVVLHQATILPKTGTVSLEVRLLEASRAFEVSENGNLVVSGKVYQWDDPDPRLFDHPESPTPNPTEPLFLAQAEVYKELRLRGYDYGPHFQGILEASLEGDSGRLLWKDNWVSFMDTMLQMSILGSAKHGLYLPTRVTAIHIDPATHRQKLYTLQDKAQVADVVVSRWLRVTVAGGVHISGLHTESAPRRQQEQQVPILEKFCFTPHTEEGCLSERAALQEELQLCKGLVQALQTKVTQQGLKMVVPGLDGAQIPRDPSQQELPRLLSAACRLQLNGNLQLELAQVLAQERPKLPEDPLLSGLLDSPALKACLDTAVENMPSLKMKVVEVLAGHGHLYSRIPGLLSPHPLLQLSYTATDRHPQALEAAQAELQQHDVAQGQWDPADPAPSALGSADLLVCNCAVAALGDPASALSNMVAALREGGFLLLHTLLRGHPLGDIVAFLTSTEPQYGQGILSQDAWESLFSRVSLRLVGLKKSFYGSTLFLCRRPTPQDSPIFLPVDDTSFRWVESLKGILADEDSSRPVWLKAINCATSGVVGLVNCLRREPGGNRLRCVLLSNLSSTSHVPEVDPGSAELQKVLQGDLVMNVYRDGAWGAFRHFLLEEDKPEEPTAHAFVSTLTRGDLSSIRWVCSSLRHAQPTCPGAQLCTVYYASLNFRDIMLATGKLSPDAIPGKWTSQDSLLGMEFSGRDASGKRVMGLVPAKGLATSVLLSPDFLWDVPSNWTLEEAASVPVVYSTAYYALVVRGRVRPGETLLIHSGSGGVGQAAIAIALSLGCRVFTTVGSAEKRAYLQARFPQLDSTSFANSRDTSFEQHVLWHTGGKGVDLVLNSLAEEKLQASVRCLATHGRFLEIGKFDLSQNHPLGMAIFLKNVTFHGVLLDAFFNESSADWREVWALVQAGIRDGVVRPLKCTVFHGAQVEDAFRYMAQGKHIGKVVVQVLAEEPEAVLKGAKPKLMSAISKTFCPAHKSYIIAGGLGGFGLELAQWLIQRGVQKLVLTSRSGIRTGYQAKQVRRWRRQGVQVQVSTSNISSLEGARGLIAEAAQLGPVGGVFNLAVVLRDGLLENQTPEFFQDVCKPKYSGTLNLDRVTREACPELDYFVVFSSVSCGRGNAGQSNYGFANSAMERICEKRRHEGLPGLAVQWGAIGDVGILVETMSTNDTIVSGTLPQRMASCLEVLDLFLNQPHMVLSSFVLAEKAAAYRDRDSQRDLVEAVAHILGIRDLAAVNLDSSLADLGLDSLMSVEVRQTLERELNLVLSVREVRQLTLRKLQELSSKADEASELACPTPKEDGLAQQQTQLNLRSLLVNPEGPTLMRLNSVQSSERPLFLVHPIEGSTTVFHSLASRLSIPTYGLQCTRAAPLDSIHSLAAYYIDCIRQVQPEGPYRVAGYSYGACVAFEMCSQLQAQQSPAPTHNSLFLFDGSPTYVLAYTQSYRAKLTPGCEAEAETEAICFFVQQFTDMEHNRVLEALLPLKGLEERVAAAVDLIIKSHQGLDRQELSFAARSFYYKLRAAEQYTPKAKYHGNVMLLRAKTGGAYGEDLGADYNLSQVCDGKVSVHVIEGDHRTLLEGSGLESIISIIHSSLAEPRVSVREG

Vero = test: viability of Vero cells under compound – cytotoxicity control for flavivirus capping enzyme inhibitors (AID 588742); type: functional; conditions: Chlorocebus sabaeus
[6] = target: T1, Probable nicotinate-nucleotide adenylyltransferase; type: functional, Staphylococcus aureus subsp. aureus N315; conditions: read-out: IC50_Mean
Fatty acid synthase [7] = target: T4, Fatty acid synthase; test: inhibition of human FAS-TE enzyme activity – biochemical, endpoint fluorescence intensity, uHTS hits, dose response (AID 624327); type: functional;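 note: fluorescence from hydrolysis of an O-methyl fluorescein acyl ester substrate by the enzyme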
[8] = target: T3, Dual specificity protein phosphatase 3; test: SAR VHR1 absorbance Assay for In Vitro dose response studies. [Related pubchem assays (depositor defined):AID1654, AID1661, AID1878, AID1992, AID2004]
Cytochrome P450 2C19 = Cytochrome P450 2C19 (Homo sapiens, UniProt P33261); test: Cytochrome panel assay with activity outcomes. Panel member name: p450-cyp2c19 Compounds with AC50 equal or less than 10 uM are considered active; type: functional
Sequence of Cytochrome P450 2C19 (P33261 whole entry): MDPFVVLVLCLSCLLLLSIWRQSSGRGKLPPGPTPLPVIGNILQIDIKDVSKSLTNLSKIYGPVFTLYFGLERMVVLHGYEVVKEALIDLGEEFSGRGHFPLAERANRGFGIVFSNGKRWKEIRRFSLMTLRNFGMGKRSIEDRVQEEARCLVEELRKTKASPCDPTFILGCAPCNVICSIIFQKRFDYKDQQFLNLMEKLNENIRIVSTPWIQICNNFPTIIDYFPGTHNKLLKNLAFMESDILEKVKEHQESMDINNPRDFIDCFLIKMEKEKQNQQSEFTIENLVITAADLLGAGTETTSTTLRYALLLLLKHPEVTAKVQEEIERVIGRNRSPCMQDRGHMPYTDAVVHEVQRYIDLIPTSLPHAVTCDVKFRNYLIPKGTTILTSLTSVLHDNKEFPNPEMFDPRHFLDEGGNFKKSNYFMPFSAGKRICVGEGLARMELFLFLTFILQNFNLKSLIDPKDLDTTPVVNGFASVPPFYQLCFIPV

Cytochrome P450 1A2 = target: T5, Cytochrome P450 1A2 (Homo sapiens, UniProt P05177);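 note: PubChem cytochrome P450 panel assay, CYP1A2 panel member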
T5 sequence (P05177 whole entry): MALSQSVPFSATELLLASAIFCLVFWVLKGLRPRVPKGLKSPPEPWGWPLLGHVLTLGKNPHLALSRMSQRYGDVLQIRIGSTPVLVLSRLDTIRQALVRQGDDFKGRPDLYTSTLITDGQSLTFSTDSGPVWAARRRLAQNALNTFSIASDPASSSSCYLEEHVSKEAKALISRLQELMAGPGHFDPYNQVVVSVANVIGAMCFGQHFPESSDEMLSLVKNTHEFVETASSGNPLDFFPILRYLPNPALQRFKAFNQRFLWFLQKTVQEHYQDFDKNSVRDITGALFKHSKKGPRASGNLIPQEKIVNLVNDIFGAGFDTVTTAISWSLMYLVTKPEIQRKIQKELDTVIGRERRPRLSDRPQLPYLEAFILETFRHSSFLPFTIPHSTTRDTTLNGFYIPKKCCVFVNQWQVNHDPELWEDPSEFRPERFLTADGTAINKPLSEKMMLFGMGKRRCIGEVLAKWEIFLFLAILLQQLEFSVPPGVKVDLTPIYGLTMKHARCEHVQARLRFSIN

Cytochrome P450 2D6 = Cytochrome P450 2D6 (Homo sapiens, UniProt P10635);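 note: CYP2D6 member of a cytochrome P450 panel assay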
[9] = restored growth of temperature-sensitive Burl-1 yeast – whole organism, S. cerevisiae, Burl-1 ts mutant, luminescence, counter-screen for SUMOylation pathway inhibitor project, dose response (AID 463199); type: functional
Caspase-7 = Caspase-7 (Homo sapiens, UniProt P55210); test: caspase-7 enzyme inhibition, selectivity check – biochemical, DEVD-R110 fluorescence, cherry-pick, selectivity assay for caspase-6 inhibitor project, dose response (AID 743295); type: functional
Sequence of Caspase-7 (P55210 24-198 limits assumed): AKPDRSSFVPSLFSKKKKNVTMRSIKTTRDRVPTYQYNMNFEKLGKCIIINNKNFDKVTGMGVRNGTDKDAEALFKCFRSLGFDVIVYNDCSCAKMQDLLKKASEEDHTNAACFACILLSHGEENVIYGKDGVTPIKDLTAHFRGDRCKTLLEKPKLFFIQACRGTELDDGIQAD
Sequence of Caspase-7 (P55210 207-303 limits assumed): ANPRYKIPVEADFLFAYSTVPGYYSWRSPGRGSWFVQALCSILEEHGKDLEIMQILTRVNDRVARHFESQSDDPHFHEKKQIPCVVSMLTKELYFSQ

[10] = target: Glucose-6-phosphate 1-dehydrogenase (Homo sapiens, UniProt P11413); test: inhibition of Homo sapiens G6PD, dose series – biochemical, fluorescence, selectivity assay for P. falciparum G6PD inhibitor project, dose response (AID 504792); type: functional
Sequence of Glucose-6-phosphate 1-dehydrogenase (P11413 whole entry): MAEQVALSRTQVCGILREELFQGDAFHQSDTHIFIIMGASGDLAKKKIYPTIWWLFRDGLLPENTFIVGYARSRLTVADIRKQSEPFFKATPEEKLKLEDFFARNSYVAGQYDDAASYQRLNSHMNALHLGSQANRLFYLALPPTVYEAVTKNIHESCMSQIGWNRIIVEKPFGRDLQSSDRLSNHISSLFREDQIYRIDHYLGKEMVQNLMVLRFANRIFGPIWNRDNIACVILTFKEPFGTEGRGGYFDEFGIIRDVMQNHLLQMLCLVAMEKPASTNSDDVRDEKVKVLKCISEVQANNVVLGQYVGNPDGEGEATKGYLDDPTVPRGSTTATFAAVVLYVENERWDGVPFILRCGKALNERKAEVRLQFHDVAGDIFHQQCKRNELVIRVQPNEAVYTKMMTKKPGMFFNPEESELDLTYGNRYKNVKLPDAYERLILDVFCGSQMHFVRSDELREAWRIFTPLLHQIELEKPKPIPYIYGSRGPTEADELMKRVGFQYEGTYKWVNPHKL

[11] = target: T6, Apoptotic protease-activating factor 1 (Homo sapiens, UniProt O14727); test: SAR analysis of small molecule Activators of Apaf-1 in a Fluorescent assay.; type: functional; conditions: read-out: EC50_Mean
T6 sequence (O14727 whole entry): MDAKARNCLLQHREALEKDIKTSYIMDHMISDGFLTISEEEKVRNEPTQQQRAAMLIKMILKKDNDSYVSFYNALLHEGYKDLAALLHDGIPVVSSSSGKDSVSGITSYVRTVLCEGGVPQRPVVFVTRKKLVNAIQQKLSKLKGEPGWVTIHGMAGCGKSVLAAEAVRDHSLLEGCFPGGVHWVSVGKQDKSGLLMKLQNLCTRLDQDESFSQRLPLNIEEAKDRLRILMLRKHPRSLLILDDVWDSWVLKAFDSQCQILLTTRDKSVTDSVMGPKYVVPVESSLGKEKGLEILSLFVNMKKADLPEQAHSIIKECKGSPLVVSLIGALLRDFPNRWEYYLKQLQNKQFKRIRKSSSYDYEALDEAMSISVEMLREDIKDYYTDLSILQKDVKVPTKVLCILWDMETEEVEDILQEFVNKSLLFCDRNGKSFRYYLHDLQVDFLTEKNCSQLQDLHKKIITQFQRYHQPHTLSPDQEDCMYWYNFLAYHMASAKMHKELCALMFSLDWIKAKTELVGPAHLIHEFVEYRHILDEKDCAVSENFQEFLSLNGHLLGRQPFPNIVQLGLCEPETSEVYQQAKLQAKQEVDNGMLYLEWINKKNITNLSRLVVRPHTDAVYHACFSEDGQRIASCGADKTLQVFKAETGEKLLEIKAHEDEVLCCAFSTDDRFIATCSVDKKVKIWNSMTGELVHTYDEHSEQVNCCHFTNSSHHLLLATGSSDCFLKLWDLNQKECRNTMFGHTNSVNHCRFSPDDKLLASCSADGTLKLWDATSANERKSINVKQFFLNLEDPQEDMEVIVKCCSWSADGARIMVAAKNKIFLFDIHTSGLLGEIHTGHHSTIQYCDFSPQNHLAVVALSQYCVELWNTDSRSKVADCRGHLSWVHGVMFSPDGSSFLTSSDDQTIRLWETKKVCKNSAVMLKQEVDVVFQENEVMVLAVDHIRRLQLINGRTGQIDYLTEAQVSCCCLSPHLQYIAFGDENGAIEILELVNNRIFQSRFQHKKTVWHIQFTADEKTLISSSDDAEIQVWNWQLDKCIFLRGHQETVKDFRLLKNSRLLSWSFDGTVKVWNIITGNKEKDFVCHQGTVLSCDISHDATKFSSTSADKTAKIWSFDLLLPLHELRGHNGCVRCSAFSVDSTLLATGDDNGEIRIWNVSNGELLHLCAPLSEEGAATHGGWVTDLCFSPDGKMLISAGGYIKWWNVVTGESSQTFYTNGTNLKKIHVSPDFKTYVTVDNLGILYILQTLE

Caspase-6 = target: T7, Caspase-6 (Homo sapiens, UniProt P55212); test: inhibition of CASP6 peptide cleavage – biochemical, VEID-R110 fluorescence, cherry-pick, dose response (AID 720632)
T7 sequence (P55212 whole entry): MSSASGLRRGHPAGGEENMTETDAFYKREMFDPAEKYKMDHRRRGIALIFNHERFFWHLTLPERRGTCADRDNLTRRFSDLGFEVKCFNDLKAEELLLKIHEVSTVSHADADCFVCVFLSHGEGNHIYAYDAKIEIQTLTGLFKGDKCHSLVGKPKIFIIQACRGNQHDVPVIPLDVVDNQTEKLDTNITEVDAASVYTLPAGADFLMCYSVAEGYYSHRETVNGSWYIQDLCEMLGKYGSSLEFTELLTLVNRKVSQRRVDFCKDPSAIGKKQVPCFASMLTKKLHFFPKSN

[12] = target: T8, Polyadenylate-binding protein 1 (Homo sapiens, UniProt P11940); test: MLLE binding blockers, Cy5 peptide tracer – biochemical, fluorescence polarization, Cy5-PAM2 peptide, secondary, miRNA deadenylation inhibitor project, dose response (AID 602260); type: functional; conditions: read-out: IC50_Mean
T8 sequence (P11940 whole entry, the tested form may be a part): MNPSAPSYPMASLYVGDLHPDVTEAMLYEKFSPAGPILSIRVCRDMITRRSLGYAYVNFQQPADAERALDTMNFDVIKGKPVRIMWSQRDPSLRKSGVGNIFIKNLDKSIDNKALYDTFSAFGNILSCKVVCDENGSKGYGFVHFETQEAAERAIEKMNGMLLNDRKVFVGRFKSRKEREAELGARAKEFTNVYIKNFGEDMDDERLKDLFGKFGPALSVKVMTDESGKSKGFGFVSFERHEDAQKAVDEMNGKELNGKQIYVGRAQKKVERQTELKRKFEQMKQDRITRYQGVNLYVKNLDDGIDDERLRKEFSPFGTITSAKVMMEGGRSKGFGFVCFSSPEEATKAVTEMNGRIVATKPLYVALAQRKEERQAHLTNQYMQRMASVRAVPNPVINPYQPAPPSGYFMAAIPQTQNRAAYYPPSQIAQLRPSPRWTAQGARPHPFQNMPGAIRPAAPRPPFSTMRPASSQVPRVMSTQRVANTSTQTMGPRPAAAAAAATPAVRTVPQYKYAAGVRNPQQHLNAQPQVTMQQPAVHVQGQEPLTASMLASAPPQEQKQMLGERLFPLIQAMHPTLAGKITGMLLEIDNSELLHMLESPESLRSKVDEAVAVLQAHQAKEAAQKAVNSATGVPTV

[13] = target: T8, Polyadenylate-binding protein 1; test: MLLE domain peptide-binding blockers, IC50 – biochemical, fluorescence polarization, FITC-PAM2 peptide, dose response (AID 602259); type: functional; conditions: read-out: IC50_Mean
[14] = target: T6, Apoptotic protease-activating factor 1; test: activation of Apaf-1 mediated apoptosis – fluorescent, uHTS hits, dose response (AID 588554); type: functional
[15] = target: T9, Replicative DNA helicase DnaB (Mycobacterium tuberculosis, UniProt P9WMR3); test: DnaB intein splicing inhibitors, dose response, biochemical, cell-free fluorescence (AID 449749); type: functional
T9 sequence (P9WMR3 whole entry): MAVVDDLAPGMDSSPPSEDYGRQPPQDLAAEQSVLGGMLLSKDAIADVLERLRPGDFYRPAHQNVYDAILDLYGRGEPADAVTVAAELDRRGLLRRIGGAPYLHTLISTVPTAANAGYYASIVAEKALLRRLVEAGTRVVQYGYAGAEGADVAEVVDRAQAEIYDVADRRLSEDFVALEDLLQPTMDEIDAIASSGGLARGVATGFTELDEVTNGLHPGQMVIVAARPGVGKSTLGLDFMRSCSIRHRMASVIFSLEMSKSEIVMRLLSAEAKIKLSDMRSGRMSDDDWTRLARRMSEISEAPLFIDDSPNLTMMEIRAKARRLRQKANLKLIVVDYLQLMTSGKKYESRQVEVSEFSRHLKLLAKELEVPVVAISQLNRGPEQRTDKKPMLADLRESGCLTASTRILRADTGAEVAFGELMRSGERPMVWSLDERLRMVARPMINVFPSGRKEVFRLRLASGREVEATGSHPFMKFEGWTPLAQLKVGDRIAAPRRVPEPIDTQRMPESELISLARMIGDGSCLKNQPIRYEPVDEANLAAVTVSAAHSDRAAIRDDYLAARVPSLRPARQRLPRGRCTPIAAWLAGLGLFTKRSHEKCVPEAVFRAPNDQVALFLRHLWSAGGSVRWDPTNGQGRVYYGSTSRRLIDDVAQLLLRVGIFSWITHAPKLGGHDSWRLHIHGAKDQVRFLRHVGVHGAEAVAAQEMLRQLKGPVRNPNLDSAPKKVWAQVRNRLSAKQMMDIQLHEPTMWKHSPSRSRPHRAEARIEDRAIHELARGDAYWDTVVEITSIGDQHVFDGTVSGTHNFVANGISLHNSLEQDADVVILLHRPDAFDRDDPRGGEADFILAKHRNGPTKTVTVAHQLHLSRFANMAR

Protein RecA = target: T10, Protein RecA (Mycobacterium tuberculosis, UniProt P9WHJ3); test: Fluorescence Cell-Free Homogeneous Dose Retest to Identify Inhibitors of RecA-Intein Splicing Activity. [Related pubchem assays (depositor defined):AID2097, AID2223, AID489010, AID492950]; type: functional
T10 sequence (P9WHJ3 whole entry): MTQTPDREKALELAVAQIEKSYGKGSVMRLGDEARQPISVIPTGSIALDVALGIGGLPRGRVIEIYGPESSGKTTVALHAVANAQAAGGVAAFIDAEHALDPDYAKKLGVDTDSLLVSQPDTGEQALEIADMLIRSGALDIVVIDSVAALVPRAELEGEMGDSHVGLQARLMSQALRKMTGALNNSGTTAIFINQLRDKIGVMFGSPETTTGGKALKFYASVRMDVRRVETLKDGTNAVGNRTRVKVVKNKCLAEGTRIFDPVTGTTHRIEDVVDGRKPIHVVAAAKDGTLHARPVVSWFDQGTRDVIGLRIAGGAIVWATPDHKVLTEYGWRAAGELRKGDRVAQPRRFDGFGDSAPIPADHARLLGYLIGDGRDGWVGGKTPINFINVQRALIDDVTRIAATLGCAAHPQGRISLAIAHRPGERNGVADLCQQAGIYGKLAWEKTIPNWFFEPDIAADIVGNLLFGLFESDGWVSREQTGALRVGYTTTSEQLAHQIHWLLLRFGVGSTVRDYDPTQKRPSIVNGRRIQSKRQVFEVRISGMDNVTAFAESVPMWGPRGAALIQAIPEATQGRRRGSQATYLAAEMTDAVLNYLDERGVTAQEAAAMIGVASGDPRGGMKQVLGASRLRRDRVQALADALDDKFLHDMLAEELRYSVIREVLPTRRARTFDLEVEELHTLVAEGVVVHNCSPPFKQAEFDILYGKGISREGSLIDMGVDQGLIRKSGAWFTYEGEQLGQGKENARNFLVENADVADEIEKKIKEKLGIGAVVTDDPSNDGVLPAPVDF
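Throughout, for EC50 Mean: caspase-3 cleavage of fluorogenic Rh110 DEVD substrate downstream of apoptosome activation.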

T1 sequence (P65502 whole entry): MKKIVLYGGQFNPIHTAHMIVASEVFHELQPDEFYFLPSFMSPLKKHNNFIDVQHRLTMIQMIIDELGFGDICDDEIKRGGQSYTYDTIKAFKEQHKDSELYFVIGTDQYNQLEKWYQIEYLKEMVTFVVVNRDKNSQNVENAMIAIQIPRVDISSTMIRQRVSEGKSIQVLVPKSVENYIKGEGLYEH

O=C(O)CSc1cc(C(=O)c2ccccc2O)cn2c(=O)c3c(-c4ccccc4)csc3nc12
IC50 [1]: 7.1 µM (active)
IC50 [2]: 13.2 µM (active)
IC50 [3]: 12.3 µM (active)
IC50 [4]: 14.6 µM (active)
IC50 (Fatty acid synthase [5]): 4.3 µM (active)
CC50 (Vero): 38.8 µM (active)
IC50 [6]: 28.4 µM (active)
IC50 (Fatty acid synthase [7]): 4.85 µM (active)
IC50 [8]: 1.93 µM (active)

CN(C)CCN(c1ccccn1)c1ccccn1
AC50 (Cytochrome P450 2C19): inconclusive
AC50 (Cytochrome P450 1A2): inconclusive
AC50 (Cytochrome P450 2D6): 3.98 µM (inconclusive)

CCOC(=O)c1c(CN2CCCCC2)n(C)c2cc(Br)c(O)c(CN(C)C)c12
AC50 [9]: 52.5 µM (active)

CC(CNc1ccccc1O)C(=O)O (configuration not stated)
AC50 (Caspase-7): > 70 µM (inactive)
IC50 [10]: > 80 µM (inactive)
EC50 [11]: > 100 µM (inactive)
AC50 (Caspase-6): 3.52 µM (active)
IC50 [12]: > 66 µM (inactive)
IC50 [13]: > 66 µM (inactive)
EC50 [14]: 14 µM (active)
AC50 [15]: 28.7 µM (active)
EC50 (Protein RecA): 7.79 µM (active)
